# In patent US9636365B2, “Antibacterial food composition” (NUTRIVERCELL, priority 2009, dated 2017):
# Where two headings read alike, the source gives them in different places.
# Key:
# [1] = Quantification of propolis polyphenols in human urines after ingesting the composition; assay type: in vivo
# Protocol: Two healthy volunteers of more than 18 years of age, with efficient contraception and having followed a normal diet, followed a regimen comprising the ingestion of gelatin capsules according to the composition of Example 3.
# Two regimens were followed: • taking 6 gelatin capsules, • taking 8 gelatin capsules.
# The taking of gelatin capsules was carried out at 8.00 am and the urines were collected by micturition in a sterile flask before ingestion, 1-6 hours after ingestion, 12 hours after ingestion and 24 hours after ingestion.
# The collected urines are hydrolyzed by enzymatic hydrolysis (glucuronidase and sulfatase), and the polyphenols are then extracted and purified on Sep-Pack.
# The polyphenols of propolis such as pinocembrin and galangin are then characterized and assayed.
# [2] = test system: E. coli strain secreting BLSE, NEC892420; test: MIC, dilution in liquid medium (CA-SFM), first BLSE strain; assay type: cell-based, Escherichia coli; details: added composition at sub-inhibitory concentration (120 or 250 mg/L), 18 h, 37° C.
# From the text: (§1) Six strains of Escherichia coli of different origins (cystitises, acute pyelonephritises, urinary chronic carriage), of different sensitivities to the main antibiotics customarily used in urinary infections and with different virulences, were selected from the strain library of the laboratory of the INSERM Espri 26 team: • 2 strains sensitive to ATBs: NECS892841 and NECS30090 • 2 strains resistant to quinolones: NECS858785 and NECS864598 • 2 strains secreting BLSE: NEC892420 and NEC118564
# (§2) Three compositions were evaluated: • a composition comprising propolis powder on maltose dextrin • a composition comprising propolis powder on maltose dextrin and PACs of type A • a composition comprising maltose dextrin
# (§3) Three antibiotics were studied: • ofloxacin • ceftriaxone • cefixime
# (§4) The whole of the tubes were put into an oven at 37° C. overnight without stirring.
# [3] = test system: E. coli strain resistant to quinolones (OFX R), NECS858785; test: MIC, dilution in liquid medium (CA-SFM), first OFX R strain; assay type: cell-based, Escherichia coli; details: added composition at sub-inhibitory concentration (120 or 250 mg/L), 18 h, 37° C.
# From the text: as §1, §2, §3, §4
# [4] = test system: E. coli strain sensitive to ATBs (S), NECS892841; test: MIC, dilution in liquid medium (CA-SFM), first S strain; assay type: cell-based, Escherichia coli; details: added composition at sub-inhibitory concentration (120 or 250 mg/L), 18 h, 37° C.
# From the text: as §1, §2, §3, §4
# [5] = test system: E. coli strain resistant to quinolones (OFX R), NECS864598; test: MIC, dilution in liquid medium (CA-SFM), second OFX R strain; assay type: cell-based, Escherichia coli; details: added composition at sub-inhibitory concentration (120 or 250 mg/L), 18 h, 37° C.
# From the text: as §1, §2, §3, §4
# [6] = test system: E. coli strain secreting BLSE, NEC118564; test: MIC, dilution in liquid medium (CA-SFM), second BLSE strain; assay type: cell-based, Escherichia coli; details: added composition at sub-inhibitory concentration (120 or 250 mg/L), 18 h, 37° C.
# From the text: as §1, §2, §3, §4
# [7] = test system: E. coli strain sensitive to ATBs (S), NECS30090; test: MIC, dilution in liquid medium (CA-SFM), second S strain; assay type: cell-based, Escherichia coli; details: second S strain row; added composition at sub-inhibitory concentration (120 or 250 mg/L); 18 h, 37° C.
# From the text: as §1, §2, §3, §4
Structure (SMILES),"amount in human urines ([1]; 1-6 h after ingestion of 6 gelatin capsules of Example 3, urine hydrolyzed) [mg/L]","concentration at 12 h ([1]; human, in vivo, 12 h after ingestion of 6 gelatin capsules of Example 3, read-out: amount in human urines) [ng/mL]","concentration at 24 h ([1]; human, in vivo, 24 h after ingestion of 6 gelatin capsules of Example 3, read-out: amount in human urines) [ng/mL]","concentration at 24 h ([1]; human, in vivo, 24 h after ingestion of 8 gelatin capsules of Example 3, read-out: amount in human urines) [ng/mL]",MIC of the antibiotic [2] [µg/mL],MIC of the antibiotic [3] [µg/mL],MIC of the antibiotic [4] [µg/mL],MIC of the antibiotic [5] [µg/mL],MIC of the antibiotic [6] [µg/mL],MIC of the antibiotic [7] [µg/mL],"amount in human urines ([1]; human, in vivo) [mg/L]","concentration at 12 h ([1]; human, in vivo, amount in human urines) [ng/mL]"
"O=c1c(O)c(-c2ccccc2)oc2cc(O)cc(O)c12 [Galangin, galangin]",0.555,291,157,311,–,–,–,–,–,–,–,–
"C=CC1=C(C(=O)O)N2C(=O)[C@@H](NC(=O)/C(=N\OCC(=O)O)c3csc(N)n3)[C@H]2SC1 [Cefixime, cefixime]",–,–,–,–,16,0.5,1,1,8,0.5,–,–
"CO/N=C(\C(=O)N[C@@H]1C(=O)N2C(C(=O)O)=C(CSc3nc(=O)c(O)nn3C)CS[C@H]12)c1csc(N)n1 [Ceftriaxon, ceftriaxone]",–,–,–,–,>32,0.25,1,0.5,32,0.5,–,–
"CC1COc2c(N3CCN(C)CC3)c(F)cc3c(=O)c(C(=O)O)cn1c23 (stereo not drawn) [Ofloxacin, ofloxacin]",–,–,–,–,>32,2,1,32,>32,0.25,–,–
"O=C1C[C@@H](c2ccccc2)Oc2cc(O)cc(O)c21 [Pinocembrin, pinocembrin]",–,–,–,–,–,–,–,–,–,–,3.344,1140
